In patent publication US20210308196A1, “COMPOSITIONS AND METHODS TO PROMOTE HOST DEFENSE AND STIMULATE, EXPAND, AND/OR RESET T CELL REPERTOIRES” (EVOLVE BIOSYSTEMS, INC., priority 2018, published 2021):

Key:
Type in all cases: in vivo, human
TNF = test: Fecal TNF expression; conditions: treatment group
[1] = Nutritional intervention study on autoimmune/allergic disease (T1D) in breastfed infants; conditions: colonized infants
Description: Administration of activated B. infantis to breastfed neonates and infants leads consistently to high levels of B. infantis in the stool.
This is a randomized, double-blinded, placebo-controlled, parallel group study design (See FIG. 15). After the parent/guardian(s) sign the informed consent, infants will be screened for all the eligibility criteria, and if found eligible will be enrolled in the study. Eligible infants must first undergo an HLA genotyping from a cord blood sample collected at birth. Based on their HLA genotype they will be either placed in group 1 (low risk by HLA genotyping) and group 2 (high risk by HLA genotype). Each group will be randomly assigned to the placebo or treatment groups. […] Parent/guardian(s) of the infants will be instructed to maintain breastfeeding (at least 1 feed/day) for at least 6 months, and up to 12 months if possible during the treatment period. Following the 12-month treatment period, individuals will be followed at regular intervals with study visits and assessments. Individuals will be followed until a sufficient number of events (seroconversion to multiple (2) islet autoantibodies) are accumulated to achieve the planned power for the final analysis. […]

[2] = tested on: fatty acid binding proteins (FABPs) and glutathione S-transferase (α-GST); test: Urine FABPs and α-GST (MILLIPLEX MAP luminex assay); conditions: treatment group
Description: Glutathione S-transferases (α-GST) are enzymes present predominantly in liver, kidney and intestinal epithelial cells that are responsible for detoxification of intracellular toxins through conjugation to glutathione. In states of increased intestinal inflammation and permeability, plasma levels of (α-GST) are a peripheral marker of intestinal epithelial cell injury.

[3] = Metabolomic analysis of infant feces (UPLC-MS/MS)
Description: Fecal samples from infants of Example 1 were evaluated as described below to characterize the fecal metabolome and what effects colonization by this organism may have on the infant's metabolism as a whole.
Sample Preparation: Fecal samples were maintained at −80° C. until processed. Samples were prepared using the automated MicroLab STAR® system from Hamilton Company. Several recovery standards were added prior to the first step in the extraction process for QC purposes. To remove protein, dissociate small molecules bound to protein or trapped in the precipitated protein matrix, and to recover chemically diverse metabolites, proteins were precipitated with methanol under vigorous shaking for 2 min (Glen Mills GenoGrinder 2000) followed by centrifugation. The resulting extract was divided into five fractions: two for analysis by two separate reverse phase (RP)/UPLC-MS/MS methods with positive ion mode electrospray ionization (ESI), one for analysis by RP/UPLC-MS/MS with negative ion mode ESI, one for analysis by HILIC/UPLC-MS/MS with negative ion mode ESI, and one sample was reserved for backup. Samples were placed briefly on a TurboVap® (Zymark) to remove the organic solvent. The sample extracts were stored overnight under nitrogen before preparation for analysis.
Preparation of study-tracking replicates. A small aliquot of each sample was pooled to create a study tracking sample, which was then injected periodically throughout the platform run. Variability detected in the study tracking sample among consistently detected biochemicals can be used to calculate an estimate of overall process and platform variability.
Ultrahigh Performance Liquid Chromatography-Tandem Mass Spectroscopy (UPLC-MS/MS): All methods utilized a Waters ACQUITY ultra-performance liquid chromatography (UPLC) and a Thermo Scientific Q-Exactive high resolution/accurate mass spectrometer interfaced with a heated electrospray ionization (HESI-II) source and Orbitrap mass analyzer operated at 35,000 mass resolution. The sample extract was dried then reconstituted in solvents compatible to each of the four methods. Each reconstitution solvent contained a series of standards at fixed concentrations to ensure injection and chromatographic consistency. One aliquot was analyzed using acidic positive ion conditions, chromatographically optimized for more hydrophilic compounds. In this method, the extract was gradient eluted from a C18 column (Waters UPLC BEH C18-2.1×100 mm, 1.7 μm) using water and methanol, containing 0.05% perfluoropentanoic acid (PFPA) and 0.1% formic acid (FA). Another aliquot was also analyzed using acidic positive ion conditions, however it was chromatographically optimized for more hydrophobic compounds. In this method, the extract was gradient eluted from the same afore mentioned C18 column using methanol, acetonitrile, water, 0.05% PFPA and 0.01% FA and was operated at an overall higher organic content. Another aliquot was analyzed using basic negative ion optimized conditions using a separate dedicated C18 column. The basic extracts were gradient eluted from the column using methanol and water, however with 6.5 mM Ammonium Bicarbonate at pH 8. The fourth aliquot was analyzed via negative ionization following elution from a HILIC column (Waters UPLC BEH Amide 2.1×150 mm, 1.7 μm) using a gradient consisting of water and acetonitrile with 10 mM Ammonium Formate, pH 10.8. The MS analysis alternated between MS and data-dependent MS' scans using dynamic exclusion. The scan range varied slighted between methods but covered 70-1000 m/z.
Data Extraction and Compound Identification: Raw data was extracted, peak-identified and QC processed using Proprietary hardware and software. […]

[4] = day 28, fold-change active:control
[5] = intervention/control, outlier removed

Substance: Bifidobacterium longum subsp. infantis EVC001 [B. infantis EVC001]
- Fecal TNF expression (TNF): significantly reduced
- Rates of childhood-onset autoimmune and allergic disease [1]: decreases
- TReg cell numbers [1]: increases
- Urine levels of FABPs and α-GST [2]: significantly reduced
- creatinine Active/Control [3, 4]: 1.4
- gamma-glutamyl-alpha-lysine Active/Control [3, 4]: 3.3
- gamma-glutamyl-epsilon-lysine Active/Control [3, 4]: 2.4
- gamma-glutamylalanine Active/Control [3, 4]: 5.9
- gamma-glutamylcysteine Active/Control [3, 4]: 44.3
- gamma-glutamylglutamate Active/Control [3, 4]: 3.1
- gamma-glutamylglutamine Active/Control [3, 4]: 1.6
- gamma-glutamylhistidine Active/Control [3, 4]: 10.5
- gamma-glutamylisoleucine* Active/Control [3, 4]: 8.1
- gamma-glutamylleucine Active/Control [3, 4]: 1.6
- gamma-glutamylmethionine Active/Control [3, 4]: 19.3
- gamma-glutamylphenylalanine Active/Control [3, 4]: 4.2
- gamma-glutamylthreonine Active/Control [3, 4]: 7.15
- gamma-glutamyltyrosine Active/Control [3, 4]: 2.8
- gamma-glutamylvaline Active/Control [3, 4]: 3.3
- Gamma-glutamyl Threonine Int/con ([3]; intervention/control): 5.35
- N-acetyl Threonine Int/con ([3]; intervention/control): 3.07
- Threonine Int/con ([3]; intervention/control): 3.21
- Gamma-glutamyl Threonine Int/Con with outlier removed [3, 5]: 7.15
- N-acetyl Threonine Int/Con with outlier removed [3, 5]: 3.67
- Threonine Int/Con with outlier removed [3, 5]: 4.35
- Fecal retinol ([3]; versus control): significantly reduced
